58 molecules from patent US20060252807A1, “Novel ortho-terphenyl inhibitors of p38 kinase and methods of treating inflammatory disorders” (Kalypsys, Inc., priority 2005, published 2006) can be followed below.

The target in the test is T1, active p38 alpha enzyme (Upstate Biotechnology) (Homo sapiens, UniProt Q16539).
T1 construct: purchased Upstate Biotechnology
T1 sequence (Q16539 whole entry): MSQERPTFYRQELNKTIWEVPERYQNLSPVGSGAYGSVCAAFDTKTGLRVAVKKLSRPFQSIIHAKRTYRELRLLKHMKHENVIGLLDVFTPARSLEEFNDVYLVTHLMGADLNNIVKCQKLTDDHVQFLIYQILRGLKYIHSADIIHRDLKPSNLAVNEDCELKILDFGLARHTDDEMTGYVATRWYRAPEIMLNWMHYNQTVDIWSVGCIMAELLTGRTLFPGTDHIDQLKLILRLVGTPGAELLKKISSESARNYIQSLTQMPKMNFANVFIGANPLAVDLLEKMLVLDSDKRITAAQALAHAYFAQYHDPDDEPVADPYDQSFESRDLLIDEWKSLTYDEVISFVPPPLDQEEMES
In words: p38α biochemical assay (ATP turnover, luminescent detection, Cambrex PKlight). The following applies: p38α kinase; Table 1 Biological Activity. In a few lines: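 Measures total ATP turnover by luminescence after human p38α phosphorylates full MapkapK2 protein. Final ATP is 1.4 uM, and incubation runs 2 hours at 30C. The buffer includes 100 mM MgCl2, 4 mM CaCl2 and 1 mg/ml BSA.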
Consider `CC(C)NC(=O)c1csc(-c2c(-c3ccc(F)cc3)n[nH]c2C2CCN(C(=O)c3ccncc3Cl)CC2)n1` [Example 870], for which the IC50 was ≤ 1000 nM.
The value for `CC(C)NC(=O)c1csc(-c2c(-c3ccc(F)cc3)n[nH]c2C2CCN(C(=O)c3c(F)cccc3F)CC2)n1` [Example 871] was > 1000 nM.
The value for `CC(C)NC(=O)c1csc(-c2c(-c3ccc(F)cc3)n[nH]c2C2CCN(C(=O)c3cccc(F)c3F)CC2)n1` [Example 872] was > 1000 nM; that for `CC(C)NC(=O)c1csc(-c2c(-c3ccc(F)cc3)n[nH]c2C2CCN(C(=O)c3ccc(F)cc3F)CC2)n1` [Example 873] was > 1000 nM; that for `CC(C)NC(=O)c1csc(-c2c(-c3ccc(F)cc3)n[nH]c2C2CCN(C(=O)c3cc(F)cc(F)c3)CC2)n1` [Example 874] was > 1000 nM.
The figure for `CC(C)NC(=O)c1csc(-c2c(-c3ccc(F)cc3)n[nH]c2C2CCN(C(=O)c3ccc(F)c(F)c3)CC2)n1` [Example 875] is > 1000 nM.
Consider `CC(CC(=O)N1CCC(c2[nH]nc(-c3ccc(F)cc3)c2-c2nc(C(=O)NC(C)C)cs2)CC1)CC(C)(C)C` (stereo not shown) [Example 876], for which the IC50 was > 1000 nM.
The figure for `CC(C)NC(=O)c1csc(-c2c(-c3ccc(F)cc3)n[nH]c2C2CCN(C(=O)c3cc4ccccc4o3)CC2)n1` [Example 877] is > 1000 nM; for `CC(C)NC(=O)c1csc(-c2c(-c3ccc(F)cc3)n[nH]c2C2CCN(C(=O)C3CCc4ccccc43)CC2)n1` (stereo not shown) [Example 878] it is > 1000 nM; for `CC(C)NC(=O)c1csc(-c2c(-c3ccc(F)cc3)n[nH]c2C2CCN(C(=O)C(Cl)(Cl)Cl)CC2)n1` [Example 879] it is > 1000 nM.
The figure for `CC(C)NC(=O)c1csc(-c2c(-c3ccc(F)cc3)n[nH]c2C2CCN(C(=O)/C=C/c3ccccc3O)CC2)n1` [Example 880] is > 1000 nM.
The figure for `CC(=O)c1ccc(C(=O)N2CCC(c3[nH]nc(-c4ccc(F)cc4)c3-c3nc(C(=O)NC(C)C)cs3)CC2)cc1` [Example 881] is > 1000 nM.
Regarding `CC(C)NC(=O)c1csc(-c2c(-c3ccc(F)cc3)n[nH]c2C2CCN(C(=O)/C=C/c3cccc(O)c3)CC2)n1` [Example 882], the IC50 is > 1000 nM.
The figure for `CC(=O)c1cccc(C(=O)N2CCC(c3[nH]nc(-c4ccc(F)cc4)c3-c3nc(C(=O)NC(C)C)cs3)CC2)c1` [Example 883] is > 1000 nM; for `CC(=O)c1ccccc1C(=O)N1CCC(c2[nH]nc(-c3ccc(F)cc3)c2-c2nc(C(=O)NC(C)C)cs2)CC1` [Example 884] it is > 1000 nM; for `CC(C)NC(=O)c1csc(-c2c(-c3ccc(F)cc3)n[nH]c2C2CCN(C(=O)c3ccc(C(C)C)cc3)CC2)n1` [Example 885] it is > 1000 nM.
The value for `Cc1ccccc1CCC(=O)N1CCC(c2[nH]nc(-c3ccc(F)cc3)c2-c2nc(C(=O)NC(C)C)cs2)CC1` [Example 886] was > 1000 nM; that for `Cc1cccc(CCC(=O)N2CCC(c3[nH]nc(-c4ccc(F)cc4)c3-c3nc(C(=O)NC(C)C)cs3)CC2)c1` [Example 887] was > 1000 nM; that for `CCC(C(=O)N1CCC(c2[nH]nc(-c3ccc(F)cc3)c2-c2nc(C(=O)NC(C)C)cs2)CC1)c1ccccc1` (stereo not shown) [Example 888] was > 1000 nM.
As to `CCCc1ccc(C(=O)N2CCC(c3[nH]nc(-c4ccc(F)cc4)c3-c3nc(C(=O)NC(C)C)cs3)CC2)cc1` [Example 890], the IC50 is > 1000 nM.
The figure for `CC(C)NC(=O)c1csc(-c2c(-c3ccc(F)cc3)n[nH]c2C2CCN(C(=O)c3ccc4c(c3)OCO4)CC2)n1` [Example 891] is > 1000 nM; for `CC(C)NC(=O)c1csc(-c2c(-c3ccc(F)cc3)n[nH]c2C2CCCN(C(=O)/C=C/c3ccccc3F)CC2)n1` (stereo not shown) [Example 892] it is > 1000 nM.
The value for `CCOc1ccccc1C(=O)N1CCC(c2[nH]nc(-c3ccc(F)cc3)c2-c2nc(C(=O)NC(C)C)cs2)CC1` [Example 893] was > 1000 nM; that for `Cc1ccccc1OCC(=O)N1CCC(c2[nH]nc(-c3ccc(F)cc3)c2-c2nc(C(=O)NC(C)C)cs2)CC1` [Example 894] was > 1000 nM; that for `CC(C)NC(=O)c1csc(-c2c(-c3ccc(F)cc3)n[nH]c2C2CCN(C(=O)CCc3ccccc3O)CC2)n1` [Example 895] was > 1000 nM.
Consider `COc1ccccc1CC(=O)N1CCC(c2[nH]nc(-c3ccc(F)cc3)c2-c2nc(C(=O)NC(C)C)cs2)CC1` [Example 896], for which the IC50 is > 1000 nM.
The figure for `CC(C)NC(=O)c1csc(-c2c(-c3ccc(F)cc3)n[nH]c2C2CCN(C(=O)C(C)c3ccc(O)cc3)CC2)n1` (stereo not shown) [Example 897] is > 1000 nM; for `CC(C)NC(=O)c1csc(-c2c(-c3ccc(F)cc3)n[nH]c2C2CCN(C(=O)c3ccccc3[N+](=O)[O-])CC2)n1` [Example 898] it is > 1000 nM.
The value for `CC(C)NC(=O)c1csc(-c2c(-c3ccc(F)cc3)n[nH]c2C2CCN(C(=O)c3cccc([N+](=O)[O-])c3)CC2)n1` [Example 899] was > 1000 nM; that for `COc1cccc(O)c1C(=O)N1CCC(c2[nH]nc(-c3ccc(F)cc3)c2-c2nc(C(=O)NC(C)C)cs2)CC1` [Example 900] was > 1000 nM; that for `COc1ccc(O)c(C(=O)N2CCC(c3[nH]nc(-c4ccc(F)cc4)c3-c3nc(C(=O)NC(C)C)cs3)CC2)c1` [Example 901] was > 1000 nM.
The figure for `COc1ccc(C(=O)N2CCC(c3[nH]nc(-c4ccc(F)cc4)c3-c3nc(C(=O)NC(C)C)cs3)CC2)c(O)c1` [Example 902] is > 1000 nM; for `COc1ccc(C(=O)N2CCC(c3[nH]nc(-c4ccc(F)cc4)c3-c3nc(C(=O)NC(C)C)cs3)CC2)cc1O` [Example 903] it is > 1000 nM; for `CC(C)NC(=O)c1csc(-c2c(-c3ccc(F)cc3)n[nH]c2C2CCN(C(=O)c3cc(O)c(O)c(O)c3)CC2)n1` [Example 904] it is ≤ 1000 nM.
With `CC(C)NC(=O)c1csc(-c2c(-c3ccc(F)cc3)n[nH]c2C2CCN(C(=O)Cc3ccc(O)c(F)c3)CC2)n1` [Example 905], the IC50 is > 1000 nM.
The figure for `Cc1cc(C(=O)N2CCC(c3[nH]nc(-c4ccc(F)cc4)c3-c3nc(C(=O)NC(C)C)cs3)CC2)cc(Cl)n1` [Example 906] is > 1000 nM; for `CC(C)NC(=O)c1csc(-c2c(-c3ccc(F)cc3)n[nH]c2C2CCN(C(=O)Cc3c(F)cccc3F)CC2)n1` [Example 907] it is > 1000 nM.
For `CC(C)NC(=O)c1csc(-c2c(-c3ccc(F)cc3)n[nH]c2C2CCN(C(=O)c3cccc4ccccc34)CC2)n1` [Example 908], the IC50 is ≤ 1000 nM.
The figure for `CC(C)NC(=O)c1csc(-c2c(-c3ccc(F)cc3)n[nH]c2C2CCN(C(=O)c3ccc(Cl)cc3O)CC2)n1` [Example 909] is > 1000 nM; for `CC(C)NC(=O)c1csc(-c2c(-c3ccc(F)cc3)n[nH]c2C2CCN(C(=O)c3cc(Cl)ccc3O)CC2)n1` [Example 910] it is > 1000 nM; for `CC(C)NC(=O)c1csc(-c2c(-c3ccc(F)cc3)n[nH]c2C2CCN(C(=O)c3ccc4ncccc4c3)CC2)n1` [Example 911] it is > 1000 nM.
The value for `CC(C)NC(=O)c1csc(-c2c(-c3ccc(F)cc3)n[nH]c2C2CCN(C(=O)c3cnc(O)c(Cl)c3)CC2)n1` [Example 912] was > 1000 nM.
In the case of `CC(C)NC(=O)c1csc(-c2c(-c3ccc(F)cc3)n[nH]c2C2CCN(C(=O)c3ccc(F)cc3Cl)CC2)n1` [Example 913], the IC50 is > 1000 nM.
Turning to `CC(C)NC(=O)c1csc(-c2c(-c3ccc(F)cc3)n[nH]c2C2CCN(C(=O)c3c(F)cccc3Cl)CC2)n1` [Example 914], the IC50 is > 1000 nM.
The figure for `CC(C)NC(=O)c1csc(-c2c(-c3ccc(F)cc3)n[nH]c2C2CCN(C(=O)CNC(=O)OC(C)(C)C)CC2)n1` [Example 915] is > 1000 nM.
The figure for `Cc1c(C(=O)N2CCC(c3[nH]nc(-c4ccc(F)cc4)c3-c3nc(C(=O)NC(C)C)cs3)CC2)oc2ccccc12` [Example 916] is ≤ 1000 nM.
The value for `CC(C)NC(=O)c1csc(-c2c(-c3ccc(F)cc3)n[nH]c2C2CCN(C(=O)CC3Cc4ccccc4C3)CC2)n1` [Example 917] was > 1000 nM; that for `CC(C)NC(=O)c1csc(-c2c(-c3ccc(F)cc3)n[nH]c2C2CCN(C(=O)C3CCc4ccccc4C3)CC2)n1` (stereo not shown) [Example 918] was > 1000 nM; that for `COc1ccccc1/C=C/C(=O)N1CCC(c2[nH]nc(-c3ccc(F)cc3)c2-c2nc(C(=O)NC(C)C)cs2)CC1` [Example 919] was > 1000 nM.
For the molecule `CC(C)NC(=O)c1csc(-c2c(-c3ccc(F)cc3)n[nH]c2C2CCN(C(=O)c3csc4ccccc34)CC2)n1` [Example 920], the IC50 is > 1000 nM.
As to `CC(C)NC(=O)c1csc(-c2c(-c3ccc(F)cc3)n[nH]c2C2CCN(C(=O)c3cc4ccccc4s3)CC2)n1` [Example 921], the IC50 is > 1000 nM.
The value for `CCCCc1ccc(C(=O)N2CCC(c3[nH]nc(-c4ccc(F)cc4)c3-c3nc(C(=O)NC(C)C)cs3)CC2)cc1` [Example 922] was > 1000 nM; that for `CC(C)NC(=O)c1csc(-c2c(-c3ccc(F)cc3)n[nH]c2C2CCN(C(=O)c3ccc(C(C)(C)C)cc3)CC2)n1` [Example 923] was ≤ 1000 nM.
The value for `CC(C)NC(=O)c1csc(-c2c(-c3ccc(F)cc3)n[nH]c2C2CCN(C(=O)c3ccc(N(C)C=O)cc3)CC2)n1` [Example 924] was > 1000 nM; that for `CC(=O)Nc1cccc(C(=O)N2CCC(c3[nH]nc(-c4ccc(F)cc4)c3-c3nc(C(=O)NC(C)C)cs3)CC2)c1` [Example 925] was ≤ 1000 nM.
The figure for `CC(C)NC(=O)c1csc(-c2c(-c3ccc(F)cc3)n[nH]c2C2CCN(C(=O)COc3ccccc3C=O)CC2)n1` [Example 926] is > 1000 nM; for `CC(=O)Oc1ccc(C(=O)N2CCC(c3[nH]nc(-c4ccc(F)cc4)c3-c3nc(C(=O)NC(C)C)cs3)CC2)cc1` [Example 927] it is > 1000 nM.
On to `COC(=O)c1ccc(C(=O)N2CCC(c3[nH]nc(-c4ccc(F)cc4)c3-c3nc(C(=O)NC(C)C)cs3)CC2)cc1` [Example 928], for which the IC50 was > 1000 nM.
